Experimental data taken from patent publication US11459315B2, “Modulators of methyl modifying enzymes, compositions and uses thereof” (Constellation Pharmaceuticals, Inc., priority 2017, dated 2022).
Where two headings read alike, the source gives them in different places.

Legend:
[1] = biological target: PRC2 containing wt EZH2 (Homo sapiens (Human), UniProt Q15910); experiment: EZH2 biochemical assay (IC50), 3H-SAM incorporation into biotinylated H3 peptide
Summary of the method: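 Activity was measured as ³H-methyl transfer to a biotinylated H3K27me1 peptide over 18-22 h at room temperature, with capture on streptavidin flash plates. The 30 pM wt-EZH2 PRC2 complex was first pre-incubated 3-5 h with compound, 450 nM SAM/450 nM ³H-SAM and 2 µM H3K27me3 activator (pH 8.5, 0.8% DMSO). Four-parameter fits gave IC50.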

[2] = test system: H3K27me3 mark in HeLa cells (EZH2); experiment: H3K27me3 Alpha Hela Assay (AlphaLISA); type: cell-based; settings: HeLa cells, 72 hrs, read-out: EZH2 Cell H3K27me3 Alpha HeLa (EC50 K27me3)
Summary of the method: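 HeLa cells (1,000/well) treated with ten 3-fold compound doses for 72 h at 37 °C; lysates extracted and H3K27me3 detected by AlphaLISA with anti-K27me3 acceptor beads, biotinylated anti-H3 (3 nM) and streptavidin donor beads. EC50 from DMSO-normalized dose-response curves; duplicate plate assessed viability.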

[3] = 30 pM PRC2 containing wt EZH2; 3-5 h pre-incubation; read-out: EZH2 (IC50)
[4] = EZH2 (IC50), 30 pM PRC2 containing wt EZH2; 3-5 h pre-incubation

PRC2 containing wt EZH2, sequence (Q15910 whole entry): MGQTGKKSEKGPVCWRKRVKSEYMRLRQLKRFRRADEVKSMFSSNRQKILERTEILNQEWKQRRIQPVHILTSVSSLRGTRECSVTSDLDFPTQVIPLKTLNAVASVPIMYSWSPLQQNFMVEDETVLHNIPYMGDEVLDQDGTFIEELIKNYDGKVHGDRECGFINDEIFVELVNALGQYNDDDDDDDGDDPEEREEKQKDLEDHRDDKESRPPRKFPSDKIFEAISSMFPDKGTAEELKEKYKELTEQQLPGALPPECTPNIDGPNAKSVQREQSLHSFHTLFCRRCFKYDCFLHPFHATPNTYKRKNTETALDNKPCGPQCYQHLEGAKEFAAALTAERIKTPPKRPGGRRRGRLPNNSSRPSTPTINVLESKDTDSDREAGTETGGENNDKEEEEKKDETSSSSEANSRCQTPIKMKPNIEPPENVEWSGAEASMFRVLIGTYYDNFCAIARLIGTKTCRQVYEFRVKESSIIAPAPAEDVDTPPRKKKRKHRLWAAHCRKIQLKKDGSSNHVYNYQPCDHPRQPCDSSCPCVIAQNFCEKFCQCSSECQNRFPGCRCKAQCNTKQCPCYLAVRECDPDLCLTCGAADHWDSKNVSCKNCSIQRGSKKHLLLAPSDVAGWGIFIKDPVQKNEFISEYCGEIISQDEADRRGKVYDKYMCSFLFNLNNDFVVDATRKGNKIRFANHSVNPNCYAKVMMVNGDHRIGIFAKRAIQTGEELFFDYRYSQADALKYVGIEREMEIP
PRC2 containing wt EZH2, sequence (O75530 whole entry partner): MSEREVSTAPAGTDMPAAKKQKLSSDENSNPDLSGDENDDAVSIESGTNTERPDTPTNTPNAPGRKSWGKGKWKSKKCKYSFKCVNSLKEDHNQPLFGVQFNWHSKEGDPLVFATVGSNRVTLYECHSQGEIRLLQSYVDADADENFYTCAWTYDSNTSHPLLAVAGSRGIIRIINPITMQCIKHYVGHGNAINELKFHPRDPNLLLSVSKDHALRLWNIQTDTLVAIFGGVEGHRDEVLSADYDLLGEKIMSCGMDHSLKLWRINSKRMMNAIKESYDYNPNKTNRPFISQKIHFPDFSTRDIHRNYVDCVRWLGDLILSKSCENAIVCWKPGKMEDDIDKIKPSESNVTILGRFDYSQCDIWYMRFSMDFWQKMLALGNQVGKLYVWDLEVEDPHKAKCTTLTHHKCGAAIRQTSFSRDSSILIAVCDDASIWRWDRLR
PRC2 containing wt EZH2, sequence (Q15022 whole entry partner): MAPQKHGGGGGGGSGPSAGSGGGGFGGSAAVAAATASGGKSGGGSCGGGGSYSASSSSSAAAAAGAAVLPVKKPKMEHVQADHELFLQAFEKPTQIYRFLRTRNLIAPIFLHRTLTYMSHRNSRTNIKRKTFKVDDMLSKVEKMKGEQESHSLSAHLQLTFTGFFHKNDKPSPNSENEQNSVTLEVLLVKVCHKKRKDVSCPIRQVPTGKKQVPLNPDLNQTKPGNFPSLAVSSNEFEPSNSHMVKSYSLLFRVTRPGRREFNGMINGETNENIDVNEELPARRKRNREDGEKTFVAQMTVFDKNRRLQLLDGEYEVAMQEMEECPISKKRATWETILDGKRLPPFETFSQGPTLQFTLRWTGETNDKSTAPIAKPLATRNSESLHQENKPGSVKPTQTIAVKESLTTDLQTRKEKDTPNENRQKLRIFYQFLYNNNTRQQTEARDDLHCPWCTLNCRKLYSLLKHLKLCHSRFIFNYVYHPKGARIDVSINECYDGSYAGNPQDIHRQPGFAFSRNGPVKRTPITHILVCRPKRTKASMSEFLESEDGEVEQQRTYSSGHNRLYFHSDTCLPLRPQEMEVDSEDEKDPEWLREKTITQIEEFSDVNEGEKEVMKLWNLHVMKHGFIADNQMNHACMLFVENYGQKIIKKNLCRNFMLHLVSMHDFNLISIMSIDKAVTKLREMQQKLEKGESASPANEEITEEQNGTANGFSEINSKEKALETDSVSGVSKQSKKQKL
PRC2 containing wt EZH2, sequence (Q09028 whole entry partner): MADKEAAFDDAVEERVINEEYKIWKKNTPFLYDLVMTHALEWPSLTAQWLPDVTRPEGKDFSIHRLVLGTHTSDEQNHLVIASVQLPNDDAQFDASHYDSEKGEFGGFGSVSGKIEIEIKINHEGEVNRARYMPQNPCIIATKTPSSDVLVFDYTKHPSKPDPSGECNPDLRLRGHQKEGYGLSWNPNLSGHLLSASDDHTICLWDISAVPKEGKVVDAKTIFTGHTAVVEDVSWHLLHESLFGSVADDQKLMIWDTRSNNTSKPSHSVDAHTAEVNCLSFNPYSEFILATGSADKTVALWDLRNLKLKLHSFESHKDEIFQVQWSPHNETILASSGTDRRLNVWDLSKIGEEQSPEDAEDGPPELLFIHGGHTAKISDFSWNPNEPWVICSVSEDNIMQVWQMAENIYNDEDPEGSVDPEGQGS
PRC2 containing wt EZH2, sequence (Q6ZN18 whole entry partner): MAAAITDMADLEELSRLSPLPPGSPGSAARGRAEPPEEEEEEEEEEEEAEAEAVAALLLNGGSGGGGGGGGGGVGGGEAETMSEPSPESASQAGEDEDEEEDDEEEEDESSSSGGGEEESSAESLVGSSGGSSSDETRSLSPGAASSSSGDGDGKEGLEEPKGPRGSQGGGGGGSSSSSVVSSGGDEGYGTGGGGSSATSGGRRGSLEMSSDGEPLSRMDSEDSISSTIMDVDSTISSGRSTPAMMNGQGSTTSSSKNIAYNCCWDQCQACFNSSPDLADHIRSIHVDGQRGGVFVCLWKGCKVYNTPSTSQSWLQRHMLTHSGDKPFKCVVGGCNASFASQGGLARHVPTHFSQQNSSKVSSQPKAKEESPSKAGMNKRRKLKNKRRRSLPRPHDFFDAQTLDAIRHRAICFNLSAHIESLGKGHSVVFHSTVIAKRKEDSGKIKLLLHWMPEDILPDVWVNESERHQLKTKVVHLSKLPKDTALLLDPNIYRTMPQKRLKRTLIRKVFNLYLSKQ

CCOC1CN(C2CCC([C@@H](C)n3c(C)c(C(=O)NCc4c(SC)cc(C)[nH]c4=O)c4cccnc43)CC2)C1 (single isomer, unassigned) [91 (isomer 1)]
IC50 [1, 3]: < 0.0005 µM
EC50 ([2]; Homo sapiens, HeLa, 72 h): < 0.01 µM

CCOC1CN(C2CCC([C@@H](C)n3c(C)c(C(=O)NCc4c(SC)cc(C)[nH]c4=O)c4cccnc43)CC2)C1 (single isomer, unassigned) [91 (isomer 2)]
IC50 [1, 3]: < 0.0005 µM
EC50 [2]: 0.01 to 0.1 µM

COC1CN(C2CCC([C@@H](C)n3c(C)c(C(=O)NCc4c(SC)cc(C)[nH]c4=O)c4cc(F)cnc43)CC2)C1 (single isomer, unassigned) [94 (isomer 1)]
IC50 [1, 3]: < 0.0005 µM
EC50 [2]: < 0.01 µM

COC1CN(C2CCC([C@@H](C)n3c(C)c(C(=O)NCc4c(SC)cc(C)[nH]c4=O)c4cc(F)cnc43)CC2)C1 (single isomer, unassigned) [94 (isomer 2)]
IC50 [1, 3]: 0.0005 to 0.005 µM
EC50 [2]: > 0.1 µM

CSc1cc(C)[nH]c(=O)c1CNC(=O)c1c(C)n([C@H](C)C2CCC(N3CC(OC4CC4)C3)CC2)c2ncncc12 (single isomer, unassigned) [102 (isomer 1)]
IC50 [1, 3]: < 0.0005 µM
EC50 ([2]; Homo sapiens, HeLa, 72 h): < 0.01 µM

CSc1cc(C)[nH]c(=O)c1CNC(=O)c1c(C)n([C@H](C)C2CCC(N3CC(OC4CC4)C3)CC2)c2ncncc12 (single isomer, unassigned) [102 (isomer 2)]
IC50 [1, 3]: < 0.0005 µM
EC50 [2]: 0.01 to 0.1 µM

CO[C@@H]1CN(C2CCC([C@@H](C)n3c(C)c(C(=O)NCc4c(SC)cc(C)[nH]c4=O)c4cccnc43)CC2)C[C@H]1F (single isomer, unassigned) [104 (isomer 1)]
IC50 [1, 3]: 0.0005 to 0.005 µM
EC50 [2]: 0.01 to 0.1 µM

CO[C@@H]1CN(C2CCC([C@@H](C)n3c(C)c(C(=O)NCc4c(SC)cc(C)[nH]c4=O)c4cccnc43)CC2)C[C@H]1F (single isomer, unassigned) [104 (isomer 2)]
IC50 [1, 3]: 0.0005 to 0.005 µM
EC50 [2]: > 0.1 µM

COC1CN(C2CCC([C@@H](C)n3c(C)c(C(=O)NCc4c(SC)cc(C)[nH]c4=O)c4cc(Cl)cnc43)CC2)C1 (single isomer, unassigned) [106 (isomer 1)]
IC50 [1, 3]: < 0.0005 µM
EC50 ([2]; Homo sapiens, HeLa, 72 h): < 0.01 µM

COC1CN(C2CCC([C@@H](C)n3c(C)c(C(=O)NCc4c(SC)cc(C)[nH]c4=O)c4cc(Cl)cnc43)CC2)C1 (single isomer, unassigned) [106 (isomer 2)]
IC50 [1, 3]: < 0.0005 µM
EC50 [2]: 0.01 to 0.1 µM

CSc1cc(C)[nH]c(=O)c1CNC(=O)c1c(C)n([C@H](C)C2CCC(N3CC(OC(C)(C)C)C3)CC2)c2ncccc12 (single isomer, unassigned) [112 (isomer 1)]
IC50 [1, 3]: < 0.0005 µM
EC50 ([2]; Homo sapiens, HeLa, 72 h): < 0.01 µM

CSc1cc(C)[nH]c(=O)c1CNC(=O)c1c(C)n([C@H](C)C2CCC(N3CC(OC(C)(C)C)C3)CC2)c2ncccc12 (single isomer, unassigned) [112 (isomer 2)]
IC50 [1, 3]: < 0.0005 µM
EC50 [2]: 0.01 to 0.1 µM

CSc1cc(C)[nH]c(=O)c1CNC(=O)c1c(C)n([C@H](C)C2CCC(N3CC(OC4CC4)C3)CC2)c2c(F)cccc12 (single isomer, unassigned) [113 (isomer 1)]
IC50 [1, 3]: < 0.0005 µM
EC50 ([2]; Homo sapiens, HeLa, 72 h): < 0.01 µM

CSc1cc(C)[nH]c(=O)c1CNC(=O)c1c(C)n([C@H](C)C2CCC(N3CC(OC4CC4)C3)CC2)c2c(F)cccc12 (single isomer, unassigned) [113 (isomer 2)]
IC50 [1, 3]: < 0.0005 µM
EC50 [2]: 0.01 to 0.1 µM

CSc1cc(C)[nH]c(=O)c1CNC(=O)c1c(C)n([C@H](C)C2CCC(N3CC(OC(F)F)C3)CC2)c2c(F)cccc12 (single isomer, unassigned) [121 (isomer 1)]
IC50 [1, 3]: < 0.0005 µM
EC50 [2]: < 0.01 µM

CSc1cc(C)[nH]c(=O)c1CNC(=O)c1c(C)n([C@H](C)C2CCC(N3CC(OC(F)F)C3)CC2)c2c(F)cccc12 (single isomer, unassigned) [121 (isomer 2)]
IC50 [1, 3]: 0.0005 to 0.005 µM
EC50 [2]: > 0.1 µM

CSc1cc(C)[nH]c(=O)c1CNC(=O)c1c(C)n([C@H](C)C2CCC(N3CC(OC(F)(F)F)C3)CC2)c2ncncc12 (single isomer, unassigned) [123 (isomer 1)]
IC50 [1, 3]: < 0.0005 µM
EC50 ([2]; Homo sapiens, HeLa, 72 h): < 0.01 µM

CSc1cc(C)[nH]c(=O)c1CNC(=O)c1c(C)n([C@H](C)C2CCC(N3CC(OC(F)(F)F)C3)CC2)c2ncncc12 (single isomer, unassigned) [123 (isomer 2)]
IC50 [1, 3]: < 0.0005 µM
EC50 [2]: < 0.01 µM

COc1cnc2c(c1)c(C(=O)NCc1c(SC)cc(C)[nH]c1=O)c(C)n2[C@H](C)C1CCC(N2CC(OC(F)F)C2)CC1 (single isomer, unassigned) [125 (isomer 1)]
IC50 [1, 3]: < 0.0005 µM
EC50 ([2]; Homo sapiens, HeLa, 72 h): < 0.01 µM

CSc1cc(C)[nH]c(=O)c1CNC(=O)c1c(C)n([C@H](C)C2CCC(OC(C)=O)CC2)c2ccccc12 (single isomer, unassigned) [134 (isomer 1)]
IC50 [1, 3]: < 0.0005 µM
EC50 ([2]; Homo sapiens, HeLa, 72 h): < 0.01 µM

CSc1cc(C)[nH]c(=O)c1CNC(=O)c1c(C)n([C@H](C)C2CCC(OC(C)=O)CC2)c2ccccc12 (single isomer, unassigned) [134 (isomer 2)]
IC50 [1, 3]: < 0.0005 µM
EC50 [2]: < 0.01 µM

CSc1cc(C)[nH]c(=O)c1CNC(=O)c1c(C)n([C@H](C)C2CCC(OC3COC3)CC2)c2ccccc12 (single isomer, unassigned) [137 (isomer 1)]
IC50 [1, 4]: < 0.0005 µM
EC50 ([2]; Homo sapiens, HeLa, 72 h): < 0.01 µM

CSc1cc(C)[nH]c(=O)c1CNC(=O)c1c(C)n([C@H](C)C2CCC(OC3COC3)CC2)c2ccccc12 (single isomer, unassigned) [137 (isomer 2)]
IC50 ([1]; read-out: EZH2 (IC50); 30 pM PRC2 containing wt EZH2; 3-5 h pre-incubation): < 0.0005 µM
EC50 [2]: < 0.01 µM

CSc1cc(C)[nH]c(=O)c1CNC(=O)c1c(C)n([C@H](C)C2CCC(N3CC(C#N)C3)CC2)c2ccccc12 (single isomer, unassigned) [138 (isomer 1)]
IC50 [1, 4]: 0.0005 to 0.005 µM
EC50 ([2]; Homo sapiens, HeLa, 72 h): 0.01 to 0.1 µM

CSc1cc(C)[nH]c(=O)c1CNC(=O)c1c(C)n([C@H](C)C2CCC(N3CC(C#N)C3)CC2)c2ccccc12 (single isomer, unassigned) [138 (isomer 2)]
IC50 [1, 4]: < 0.0005 µM
EC50 [2]: 0.01 to 0.1 µM

CSc1cc(C)[nH]c(=O)c1CNC(=O)c1c(C)n([C@H](C)C2CCC(N3CC34COC4)CC2)c2ncccc12 (single isomer, unassigned) [139 (isomer 1)]
IC50 [1, 4]: < 0.0005 µM
EC50 ([2]; Homo sapiens, HeLa, 72 h): 0.01 to 0.1 µM

CSc1cc(C)[nH]c(=O)c1CNC(=O)c1c(C)n([C@H](C)C2CCC(N3CC34COC4)CC2)c2ncccc12 (single isomer, unassigned) [139 (isomer 2)]
IC50 [1, 4]: 0.0005 to 0.005 µM
EC50 [2]: 0.01 to 0.1 µM

CCCC(=O)OC1CCC([C@@H](C)n2c(C)c(C(=O)NCc3c(SC)cc(C)[nH]c3=O)c3ccccc32)CC1 (single isomer, unassigned) [143 (isomer 1)]
IC50 [1, 3]: < 0.0005 µM
EC50 ([2]; Homo sapiens, HeLa, 72 h): < 0.01 µM

CCCC(=O)OC1CCC([C@@H](C)n2c(C)c(C(=O)NCc3c(SC)cc(C)[nH]c3=O)c3ccccc32)CC1 (single isomer, unassigned) [143 (isomer 2)]
IC50 [1, 3]: < 0.0005 µM
EC50 [2]: < 0.01 µM

CSc1cc(C)[nH]c(=O)c1CNC(=O)c1c(C)n([C@H](C)C2CCC(OC(=O)C(C)C)CC2)c2ccccc12 (single isomer, unassigned) [144 (isomer 1)]
IC50 [1, 3]: < 0.0005 µM
EC50 ([2]; Homo sapiens, HeLa, 72 h): < 0.01 µM

CSc1cc(C)[nH]c(=O)c1CNC(=O)c1c(C)n([C@H](C)C2CCC(OC(=O)C(C)C)CC2)c2ccccc12 (single isomer, unassigned) [144 (isomer 2)]
IC50 [1, 3]: < 0.0005 µM
EC50 [2]: < 0.01 µM

CSc1cc(C)[nH]c(=O)c1CNC(=O)c1c(C)n([C@H](C)C2CCC(OC3CN(C)C3)CC2)c2ncccc12 (single isomer, unassigned) [145 (isomer 1)]
IC50 [1, 4]: 0.0005 to 0.005 µM
EC50 ([2]; Homo sapiens, HeLa, 72 h): > 0.1 µM

CSc1cc(C)[nH]c(=O)c1CNC(=O)c1c(C)n([C@H](C)C2CCC(OC3CN(C)C3)CC2)c2ncccc12 (single isomer, unassigned) [145 (isomer 2)]
IC50 [1, 4]: < 0.0005 µM
EC50 [2]: > 0.1 µM

CSc1cc(C)[nH]c(=O)c1CNC(=O)c1c(C)n([C@H](C)C2CCC(Oc3cnn(C)c3)CC2)c2ncccc12 (single isomer, unassigned) [147 (isomer 1)]
IC50 [1, 3]: < 0.0005 µM
EC50 ([2]; Homo sapiens, HeLa, 72 h): < 0.01 µM

CSc1cc(C)[nH]c(=O)c1CNC(=O)c1c(C)n([C@H](C)C2CCC(Oc3cnn(C)c3)CC2)c2ncccc12 (single isomer, unassigned) [147 (isomer 2)]
IC50 [1, 3]: < 0.0005 µM
EC50 [2]: < 0.01 µM

CSc1cc(C)[nH]c(=O)c1CNC(=O)c1c(C)n([C@H](C)C2CCC(N3CC(N(C)C)C3)CC2)c2ccccc12 (single isomer, unassigned) [148 (isomer 1)]
IC50 [1, 3]: < 0.0005 µM
EC50 ([2]; Homo sapiens, HeLa, 72 h): 0.01 to 0.1 µM
